The CheMixHub viscosity set

Assay: xn = mol fraction of the nth substance listed

NCCCN + OCCCO
viscosity [mPa·s], 100 kPa
Settings	293.15 K	298.15 K	303.15 K	308.15 K	313.15 K	318.15 K
x2 = 0.0488	2.48	2.207	1.884	1.707	1.513	1.454
x2 = 0.0977	3.266	2.887	2.418	2.17	1.888	1.837
x2 = 0.1467	4.261	3.71	3.095	2.765	2.395	2.296
x2 = 0.1958	5.561	5.116	3.988	3.529	3.071	2.924
x2 = 0.2451	7.784	6.598	5.35	4.639	3.944	3.722
x2 = 0.2945	10.96	9.104	7.198	6.175	5.145	–
x2 = 0.3441	15.12	12.35	9.637	8.272	6.698	–
x2 = 0.3937	20.61	16.58	12.78	10.64	8.698	–
x2 = 0.4435	27.49	22.54	17.07	14.02	11.29	–
x2 = 0.4934	37.54	29.33	21.87	17.83	14.16	–
x2 = 0.5435	48.19	37.19	27.63	22.21	17.49	–
x2 = 0.5937	59.37	45.53	33.45	26.75	20.06	–
x2 = 0.644	68.67	52.73	38.69	30.9	24.13	–
x2 = 0.6945	75.47	57.65	42.48	34	26.62	–
x2 = 0.745	77.45	60.06	44.62	35.77	28.05	–
x2 = 0.7958	76.36	59.6	44.73	36.13	28.42	–
x2 = 0.8466	71.94	56.84	42.88	34.89	27.77	–
x2 = 0.8976	66.38	52.57	40	32.8	26.28	–
x2 = 0.9487	59.47	47.41	36.34	30.05	24.3	–

NCCCN + OCCOCCOCCOCCO
viscosity [mPa·s], 101.33 kPa
Settings	293.15 K	298.15 K	303.15 K	308.15 K	313.15 K	318.15 K
x2 = 0.0197	2.27	1.95	1.76	1.6	1.31	1.26
x2 = 0.0407	2.72	2.32	2.08	1.86	–	1.48
x2 = 0.0631	3.37	2.84	2.52	2.25	1.97	1.75
x2 = 0.0871	4.07	3.41	2.99	2.64	2.34	2.08
x2 = 0.1129	5.06	4.2	3.64	3.21	2.83	2.48
x2 = 0.1406	6.38	5.25	4.48	3.92	3.42	3
x2 = 0.1705	8.2	6.64	5.62	4.86	4.2	3.62
x2 = 0.2028	10.6	8.44	7.08	6.05	5.2	4.42
x2 = 0.238	13.9	10.9	9.08	7.62	6.48	5.45
x2 = 0.2762	18.5	14.2	11.6	9.67	8.11	6.84
x2 = 0.3181	24.6	18.7	15.1	12.4	10.3	8.42
x2 = 0.3641	33.1	24.9	19.6	15.8	12.8	10.5
x2 = 0.4148	43.8	32.6	25.2	20.1	16.1	13
x2 = 0.4711	57.6	41.4	31.7	24.9	19.7	15.8
x2 = 0.5338	71.2	50.7	38.4	30	23.5	18.7
x2 = 0.6042	81.6	57.9	43.7	34	26.8	21
x2 = 0.6838	85.1	60.9	46	36	28.4	22.4
x2 = 0.7745	81.2	59.1	45	35.5	28.3	22.5
x2 = 0.8788	71.9	53.1	41	32.7	26.4	21.1
